Patent US11149047B2, “Aryl imidazoles for treatment of cancer” (Aptose Biosciences Inc., priority 2017, dated 2021)
Marks after values point to notes of the source that are not given here.

Experiments:
[1] = system: phospho-ATM, phospho-γH2AX, PARP cleavage in Raji/COMPOUND IR cells; assay: Western blot of phospho-ATM, γH2AX and cleaved PARP; assay type: cell-based, human; settings: 0.5 μM, 24 h
Procedure: Only when the Raji/COMPOUND IR cells were treated with at least 3 times as much COMPOUND I did the intracellular content of Fe(COMPOUND I)3 finally reach a level similar to that in the sensitive cells (FIG. 4D).

[2] = system: Raji/COMPOUND IR cells; assay: Cellular pharmacology: intracellular accumulation and efflux by LC-MS/MS; assay type: in vitro ADME, human
Procedure: Cells exposed to COMPOUND I or Fe(COMPOUND I)3 were homogenized in acetonitrile containing 5 ng of a deuterated COMPOUND I standard. Samples were analyzed at the UCSD Molecular Mass Spectrometry Facility employing an Agilent 1260 liquid chromatograph (LC) system coupled with a Thermo LCQdeca mass spectrometer using positive ion mode electrospray ionization (ESI) as the ion source. The ESI ion source voltage was set at 5 kV, with sheath gas flow rate of 80 units, auxiliary gas flow rate of 20 units, and capillary temperature of 250° C., respectively. A Phenomenex Kinetex Biphenyl column (ID 2.1 mm×length 50 mm, particle size 2.6 μm) was utilized for LC separation using water with 0.1% formic acid as the mobile phase A and acetonitrile with 0.1% formic acid as the mobile phase B. The LC flow rate was set at 0.30 mL/min. The LC gradient increased from 5% mobile phase B to 95% mobile phase B in 10 minutes, held at 95% B for 2 minutes, returned to 5% B in 1 minute, and then held at 5% B for 6 minutes. […] Selected reaction monitoring (SRM) mode was used to acquire the m/z 353 and m/z 359 fragmental peaks. The SRM peak area ratio (COMPOUND I/COMPOUND I-d6) related to the amount of spiked COMPOUND I-d6 was used for the quantification of COMPOUND I and Fe(COMPOUND I)3 in the samples. The same column, gradient and flow rate were used for detection of Fe(COMPOUND I)3 which was detected using an Agilent 1100 HPLC and Orbitrap XL (Thermo) mass spectrometer employing a Thermo IonMax ESI interface. The Fe(COMPOUND I)3 eluted around 11.5 minutes with these conditions. A 10:1 flow split was used for the eluent flow rate of 0.3 mL/min, so that approximately 0.030 mL/min was introduced into the ESI after the split. […]
Resistance in the Raji/COMPOUND IR cells may be due to alterations in influx or efflux, intracellular detoxification or a change in the primary target of the drug. The intracellular accumulation of both native COMPOUND I and the Fe(COMPOUND I)3 in Raji and Raji/COMPOUND IR cells incubated with either native COMPOUND I or the Fe(COMPOUND I)3 complex was monitored.

[3] = system: Raji cells; assay: Cytotoxicity study, MTS cell proliferation assay, 5 days; assay type: cell-based, human; settings: Homo sapiens, Raji
Procedure: (§1) The human Burkitt lymphoma cell line Raji was obtained from the American Type Tissue Culture Collection and cultured in RPMI 1640 medium (ATCC) supplemented with 10% fetal bovine serum (ATCC,) at 37° C., 5% CO2. The COMPOUND I-resistant Raji (Raji/COMPOUND IR) cell line was generated by exposure to progressively higher concentrations of COMPOUND I over a period of 6 months. CAOV3 cells were obtained from ATCC and cultured in complete DMEM supplemented with 10% fetal bovine serum. MCF7 vector controlled and BRCA1 shRNA subclones were obtained from Dr. Simon Powell (Memorial Sloan-Kettering Cancer Center) and cultured in EMBM with 10% fetal bovine serum. MCF10A and hTERT-IMEC clones were obtained from Dr. Ben Ho Park (Johns Hopkins University). HCT116 BRCA2^+/+ cells and BRCA2^−/− cells were obtained from Dr. Samuel Aparicio (British Columbia Cancer Research Centre). PEO1 and PEO4 cells were obtained from Dr. Sharon Cantor (University of Massachusetts) and these cell lines were cultured under the same conditions as previously published. Sakai et al., Functional restoration of BRCA2 protein by secondary BRCA2 mutations in BRCA2-mutated ovarian carcinoma, Cancer Res. 2009; 69 (16):6381-6; Konishi et al., Mutation of a single allele of the cancer susceptibility gene BRCA1 leads to genomic instability in human breast epithelial cells, Proc. Natl. Acad. Sci. 2011; 108 (43):17773-8; Xu et al., CX-5461 is a DNA G-quadruplex stabilizer with selective lethality in BRCA1/2 deficient tumours, Nature Communications 2017; 8:14432, all of which are hereby incorporated by reference.
(§2) Cells were plated and treated with the indicated drugs in 96-well plates for 5 days. Cell viability was measured using CellTiter 96 AQueous one solution (MTS) cell proliferation assay purchased from Promega, and IC50 values were calculated using GraphPad Prism 6 Software.

[4] = system: Raji/COMPOUND IR cells; assay: as above; assay type: cell-based, human; settings: for RR (relative resistance): Raji/COMPOUND IR vs Raji; for IC50: Homo sapiens, Raji
Procedure: as §1, §2

`Cc1[nH]c2ccc(F)cc2c1-c1nc2c3cccnc3c3ncccc3c2[nH]1` [COMPOUND I, 2-(5-fluoro-2-methyl-1H-indol-3-yl)-1H-imidazo[4,5-f][1,10]phenanthroline] was tested, and the “phospho-ATM, phospho-γH2AX, PARP cleavage” value [1] was “no increase in phospho-ATM or phospho-γH2AX, and no detectable PARP cleavage”, the “rate of accumulation in Raji/COMPOUND IR vs Raji cells” value ([2]; 0.5 μM, FIG. 6A, 6B) was “severely reduced” and the “Rate of efflux over first 2 hours” value ([2]; Raji/COMPOUND IR cells, mean ± SEM, n = 6) was −0.26 ± 0.025 log fmole/10^7 cells/h. The “difference in efflux over first 2 h between Raji and Raji/COMPOUND IR” value ([2]; after loading of the cells) was “no apparent difference in the efflux”, the IC50 ([3]; 120 h, parental Raji cells, growth rate during 120 h exposure) was 91.9 ± 22.3 nM and the IC50 ([3]; COMPOUND I + 5 nM Ko143) was 98.3 ± 0.8 nM. For the same molecule, the IC50 ([3]; COMPOUND I + 50 nM Ko143) was 103 ± 2.9 nM, the IC50 ([3]; COMPOUND I alone, mean ± SEM) was 105 nM and the “fold resistant to COMPOUND I (Raji/COMPOUND IR over sensitive Raji)” value [4] was 16.7±3.9 fold. The “RR (relative resistance)” value ([4]; COMPOUND I + 5 nM Ko143) was 10.9 ± 1.9^c, the “RR (relative resistance)” value ([4]; COMPOUND I + 50 nM Ko143) was 2.5 ± 0.7^a and the “RR (relative resistance)” value ([4]; COMPOUND I alone) was 16.7 ± 3.9^b. For the same molecule, the IC50 ([4]; COMPOUND I + 5 nM Ko143, Raji/COMPOUND IR) was 853 ± 44 nM, the IC50 ([4]; COMPOUND I + 50 nM Ko143, Raji/COMPOUND IR) was 201 ± 20.7 nM and the IC50 ([4]; COMPOUND I alone, Raji/COMPOUND IR, mean ± SEM) was 1390 ± 94 nM. It also gave an IC50 ([4]; Raji/COMPOUND IR cells) of 1390 ± 98.5 nM.
